For 26 compounds, TGI and GI50 results are on record in PubChem BioAssay (NCI).

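Growth conditions: 96-well plates. Treatment: test compound, 48 hours, 5 concentrations. Analysis: linear interpolation between bracketing concentrations; unreached endpoints set to highest concentration. GI50: concentration for 50% inhibition of growth. TGI is the concentration that stops growth completely.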

Test in all cases: NCI-60 cell line screen, 48 h
Experiment [1] relates to SF-295 CNS.
For experiment [2], the system named is LOX IMVI melanoma.
The test system of experiment [3] is SF-268 CNS.
In experiment [4] the test system is A498 renal.
The test system of experiment [5] is SNB-75 CNS.
In experiment [6] the test system is NCI-H226 lung.
The test system of experiment [7] is SK-MEL-5 melanoma.
Experiment [8] concerns SR leukemia.

For `O/N=C1/C(=C/c2ccccc2)CCCC1C(NO)c1ccccc1` (stereo not drawn), the TGI in experiment [1], in experiment [2], in experiment [3], in experiment [4] and in experiment [5] was more than 100 µM each time.
In the case of `C[n+]1ccc2[nH]c3ccccc3c2c1`, the TGI in experiment [1], in experiment [2], in experiment [3], in experiment [4], in experiment [6] and in experiment [7] was more than 100 µM each time. Moreover, in experiment [5], the TGI was more than 100 µM.
For `CN(/C(=N\O)c1ccccc1)c1ccccc1`, the TGI in experiment [1] was 43.4 µM; in experiment [8], 75.4 µM; in experiment [2], 75.7 µM; in experiment [3], 97 µM; in experiment [6] it was 60 µM; in experiment [5] it was 40.8 µM.
In the case of `N=C(N)Cn1cnc2ccccc21`, the TGI in experiment [1], in experiment [2], in experiment [3], in experiment [4], in experiment [6] and in experiment [7] was more than 100 µM each time. Also, the TGI in experiment [5] is more than 100 µM.
Take `CN(C(=O)C1CC1)C1C2CN3CCC(O2)C13` (stereo not drawn): the TGI in experiment [1], in experiment [2], in experiment [3], in experiment [4], in experiment [6] and in experiment [7] was more than 100 µM in each case. In addition, in experiment [5], the TGI is more than 100 µM.
With `CCC[CH2][Sn]1([CH2]CCC)[O]CC([CH2][Sn]([c]2ccccc2)([c]2ccccc2)[c]2ccccc2)[O]1` (stereo not drawn), the GI50 in experiment [1] was 16.2 µM; in experiment [8], 3.78 µM; in experiment [3], 6.79 µM; in experiment [6], 20.7 µM; in experiment [5] it was 6.49 µM. The TGI in experiment [1] was 30.4 µM; in experiment [8], more than 100 µM; in experiment [3] it was 19 µM; in experiment [6] it was 38.8 µM; in experiment [5], 20.2 µM.
For the compound `CC(=O)[CH-]C(=O)c1ccccc1.CC(=O)[CH-]C(=O)c1ccccc1.CC[O-].O=C1C=C([O-])C(=O)c2ccccc21.[Ti+4]`, the GI50 in experiment [1] is 37.9 µM; in experiment [2], 20 µM; in experiment [3], more than 100 µM; in experiment [4], 81.1 µM; in experiment [6], 76 µM; in experiment [7], 14 µM. Further, in experiment [5], the GI50 was more than 100 µM. Also, the TGI in experiment [1], in experiment [2], in experiment [3], in experiment [4], in experiment [6] and in experiment [7] was more than 100 µM each time. In experiment [5], this compound gave a TGI of more than 100 µM.
Take `CCCCCC/C=C/CCCCCCCc1cccc(O)c1C(=O)O`: the TGI in experiment [1], in experiment [8], in experiment [2], in experiment [3] and in experiment [5] was more than 100 µM in each case.
On to `NC(=O)N/N=C1/CCCC/C1=C\c1ccccc1`, for which the TGI in experiment [1], in experiment [8], in experiment [2], in experiment [3], in experiment [4] and in experiment [6] was more than 100 µM in each case. Also, the TGI in experiment [7] and in experiment [5] was more than 100 µM throughout.
On to `Cn1c(=O)c2[nH]cnc2n(CC(=O)O)c1=O`, for which the TGI in experiment [8], in experiment [3], in experiment [4], in experiment [6], in experiment [7] and in experiment [5] was more than 100 µM in each case.
`CC(=O)NNc1nc(C)c(C(/C=C/c2ccc(Cl)cc2)=N/NC(=S)NN)s1`: the TGI in experiment [1], in experiment [8], in experiment [2], in experiment [3], in experiment [4] and in experiment [6] was more than 100 µM throughout. In addition, the TGI in experiment [7] and in experiment [5] was more than 100 µM in each case.
`CCCCCCCCCCCCOC(=S)NC`: the TGI in experiment [1] turned out to be 43.9 µM; in experiment [8] it was 34.6 µM; in experiment [2], 27.4 µM; in experiment [3] it was 36 µM; in experiment [4], 41.5 µM; in experiment [6] it was 15.2 µM. This compound yielded a TGI in experiment [5] of 74.6 µM.
As to `CCN1CCC(O)(c2ccc(Cl)c(Cl)c2)C(C(=O)c2ccc(Cl)c(Cl)c2)C1` (stereo not drawn), the TGI in experiment [1] is 31.9 µM; in experiment [2], 34 µM; in experiment [3] it was 38.6 µM; in experiment [4], 40.2 µM; in experiment [6], 40.1 µM; in experiment [7], 31.5 µM. In experiment [5], this compound had a TGI of 28.5 µM.
For the compound `COc1cc(CCC(=O)NS(=O)(=O)c2ccccc2)cc(OC)c1OC`, the TGI in experiment [1], in experiment [8], in experiment [2], in experiment [3], in experiment [4] and in experiment [6] was more than 100 µM in each case. This compound also had a TGI in experiment [5] of more than 100 µM.
Turning to `CC(=O)OC1C/C(C)=C/[C@H](O)CC(C)/C=C/[C@@]2(C)CCC(C(C)(C)O)C12` (stereo partly drawn), the TGI in experiment [1], in experiment [8], in experiment [2], in experiment [3], in experiment [4] and in experiment [6] was more than 100 µM throughout. In addition, the TGI in experiment [7] and in experiment [5] was more than 100 µM in each case.
Consider `COC(=O)C(C(=O)C(=O)Nc1ccc(C)cc1C)c1nc2ccc([N+](=O)[O-])cc2[nH]c1=O` (stereo not drawn), for which the TGI in experiment [1], in experiment [8], in experiment [2], in experiment [3], in experiment [4] and in experiment [6] was more than 100 µM each time. Moreover, the TGI in experiment [7] and in experiment [5] was more than 100 µM in each case.
On to `COC(=O)NN=C1C(C)(C)C(=NNC(=O)OC)C1(C)C`, for which the TGI is more than 100 µM in experiment [1]; more than 50.9 µM in experiment [2]; more than 100 µM in experiment [3]; more than 100 µM in experiment [4]; more than 100 µM in experiment [6]; more than 100 µM in experiment [7]. In experiment [5], this compound returned a TGI of more than 100 µM.
Turning to `CC(C)(C)[Si](Nc1ccccc1)(c1ccccc1)c1ccccc1`, the TGI is 26 µM in experiment [1]; 26.1 µM in experiment [2]; 28 µM in experiment [3]; 31.3 µM in experiment [4]; 29.8 µM in experiment [6]; 34.2 µM in experiment [7]. In experiment [5], the TGI was found to be 24.5 µM.
As to `CCCCCCCCCCCCCCCCCCOCC1(COP(=O)([O-])OCC[N+](C)(C)C)CCCO1` (stereo not drawn), the TGI in experiment [1] turned out to be 6.84 µM; in experiment [2] it was 19.3 µM; in experiment [3], 18.2 µM; in experiment [4], 11.8 µM; in experiment [6] it was 20.1 µM; in experiment [7], 27.7 µM. In experiment [5], this compound showed a TGI of 18.3 µM.
On to `NC(=O)C12CCC1C1CCCCC12N1CCOCC1` (stereo not drawn), for which the TGI in experiment [1], in experiment [8], in experiment [2], in experiment [3], in experiment [4] and in experiment [7] was more than 100 µM throughout. Further, the TGI in experiment [5] was more than 100 µM.
`O=C(Cc1nc2ccccc2s1)C(=O)Nc1ccc(Cl)cc1Cl`: the TGI in experiment [1], in experiment [8], in experiment [2], in experiment [3], in experiment [6] and in experiment [5] was more than 100 µM throughout.
Turning to `CC(=O)Oc1cc(OC(C)=O)c2cc3c(cc2c1OC(C)=O)C(=O)C1(CCCC1)C3=O`, the TGI worked out at 29.9 µM in experiment [1], 33.5 µM in experiment [2], 66.5 µM in experiment [3] and 30 µM in experiment [5].
As to `C/C(CC(=O)Nc1ccc(NC(=O)/C(C)=N/NS(=O)(=O)c2ccc(C)cc2)cc1)=N\NS(=O)(=O)c1ccc(C)cc1`, the TGI in experiment [1], in experiment [2], in experiment [3], in experiment [4], in experiment [6] and in experiment [7] was more than 100 µM throughout. Moreover, the TGI in experiment [5] was more than 100 µM.
Turning to `N#CNc1nc(C(=O)Nc2ccc(Cl)cc2)cc(-c2ccccc2)n1`, the TGI in experiment [1], in experiment [3], in experiment [4], in experiment [6], in experiment [7] and in experiment [5] was more than 100 µM throughout.
Take `O/N=C1/C(=C/c2ccc(Cl)cc2)CCCC1C(NO)c1ccc(Cl)cc1` (stereo not drawn): the TGI turned out to be 36.4 µM in experiment [1]; 40.2 µM in experiment [3]; 38.9 µM in experiment [4]; 66.2 µM in experiment [7]; 39.5 µM in experiment [5].
As for `O=C(Nc1ccccc1)OCc1nc2c([nH]1)C(=O)C=CC2=O`, the TGI in experiment [1] is 33.1 µM; in experiment [8], 51.7 µM; in experiment [2], 30.9 µM; in experiment [4] it was 30.1 µM; in experiment [6], 33.3 µM; in experiment [7], 27.3 µM. The TGI in experiment [5] was 37.1 µM.
